From US8535928B2, “Protease and use thereof” (Osaka University, priority 2008, dated 2013)
Starred links: 1 amine or outer side, 2 acyl side, 3 side chain; linkers in the order of their positions; H or OH if unused. Residues, ends and D or L forms follow the SMILES beside them. *: point of attachment. pNA = O=[N+]([O-])c1ccc(N*)cc1; Suc = O=C(CCC(=O)[*:2])[*:1]

Molecular target: T1, Thermococcus kodakaraensis KOD1 protease Tk-SP (mature subtilisin-like serine protease, SEQ ID NO: 1 or SEQ ID NO: 3) (Thermococcus kodakarensis, UniProt Q5JIZ5)
T1 construct: C-terminus at 562 or 563
T1 sequence (Q5JIZ5 137-562): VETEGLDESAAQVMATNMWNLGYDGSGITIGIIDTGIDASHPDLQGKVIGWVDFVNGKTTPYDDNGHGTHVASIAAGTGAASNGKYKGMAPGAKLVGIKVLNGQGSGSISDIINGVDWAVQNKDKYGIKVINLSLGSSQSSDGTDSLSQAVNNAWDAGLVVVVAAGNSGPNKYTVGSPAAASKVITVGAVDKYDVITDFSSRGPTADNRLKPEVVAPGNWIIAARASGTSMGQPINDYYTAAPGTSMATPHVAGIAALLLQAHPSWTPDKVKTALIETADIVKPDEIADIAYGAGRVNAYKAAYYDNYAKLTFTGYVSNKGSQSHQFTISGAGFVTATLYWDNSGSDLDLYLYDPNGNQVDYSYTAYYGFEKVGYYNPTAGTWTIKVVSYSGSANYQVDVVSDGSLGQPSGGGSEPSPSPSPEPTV
Test: Rate parameters of Tk-SP with Suc-AAPF-pNA (Michaelis-Menten)
Assay type: biochemical
Method: For examination of the pH dependence and the buffer dependence of the Tk-SP, enzyme reactions were performed using acetate buffers (pH 4.5, 5.0, 5.2, 5.4 and 5.6), MES buffers (pH 5.5, 6.0, 6.5 and 7.0), HEPES buffers (pH 7.0 and 7.5), Tris-HCl buffers (pH 7.0, 7.5, 8.0, 8.5 and 9.0), glycine-NaOH buffers (pH 8.5, 9.0, 9.5 and 10.0) and CAPS-NaOH buffers (pH 9.0, 9.5, 10.0, 10.5, 11.0 and 11.5) in the following procedure. 100 μl of a reaction mixture containing a 50 mM buffer and 2 mM Suc-AAPF-pNA (synthetic substrate) was incubated at 20° C. for 5 minutes. To this, 0.1 μg of the Tk-SP was added and the reaction mixture was further incubated at 20° C. for 10 minutes. The reaction was stopped by addition of 10 μl of acetic acid, and then the amount of p-nitroaniline produced from the synthetic substrate Suc-AAPF-pNA was determined by use of the absorption coefficient of 8900 M^−1 cm^−1 from the absorbance at 410 nm in an ultraviolet spectrophotometer (Beckman model DU640). The amount of the enzyme which catalyzes the production of 1 μmol of p-nitroaniline per minute was defined as “one unit.” The enzyme activity per milligram of the protein was defined as specific activity.
By use of, as a substrate, Suc-AAPF-pNA at various concentrations ranging from 0.01 to 2 mM, the specific activity of the Tk-SP was measured at 20 and 80° C. The measurement procedure was the same as that of Example 2. The obtained values were applied to the Michaelis-Menten equation for calculation of the rate parameters. For comparison, the specific activity of a known thermostable protease, Tk-subtilisin (see nonpatent literature 1) was similarly measured and then the rate parameters thereof were calculated.

`C[C@H](NC(=O)CCC(=O)O)C(=O)N[C@@H](C)C(=O)N1CCC[C@H]1C(=O)N[C@@H](Cc1ccccc1)C(=O)Nc1ccc([N+](=O)[O-])cc1` [Suc-AAPF-pNA] (Suc-AAPF-pNA) was tested, and the “Km value relative to the Km value of Tk-subtilisin” value (80° C.) was “about 1/10”, the Km (80° C., substrate 0.01 to 2 mM) was 100 to 1000 µM and the “Km value compared with that of Tk-subtilisin” value (at either temperature (20 and 80° C.)) was “smaller than that of Tk-subtilisin”.
